Data on four compounds can be found in patent EP1790337A2, “Methods and compounds for treating depression and other disorders” (priority 1998, dated 2000).

Counter-ions that a name gives are not always drawn. Where only a bound is given, the exact number is not on record here.

In assay [1] the test system is NMDA receptor. The assay is described as follows: NMDA assay: fura-2 measurement of cytosolic calcium in cultured rat cerebellar granule cells. The assay is classed as cell-based. How it is done: All culture media, antibiotics, and enzymes, with the exception of fetal calf serum (Hyclone Laboratories, Logan, UT), were purchased from Sigma Chemical Co., St. Louis, MO. Fura-2/AM was obtained from Molecular Probes, Eugene, OR, and was prepared freshly in dimethylsulfoxide (DMSO) before use. Ionomycin (Calbiochem) was stored as a stock solution in DMSO. Nifedipine (Sigma) and nimodipine (RBI) were dissolved in absolute ethanol. […] All other agents were dissolved in phosphate-buffered saline (PBS), and adjusted to pH 7.4
Briefly, primary cultures of cerebellar granule neurons were obtained from 8-day-old rats and plated onto squares of Aclar plastic coated with poly-L-lyaine. The plastic squares were placed in 12-well culture plates, and ~7.5 x 10^5 cells were added to each well. […] No changes of culture medium were made until the cells were used for fluorescence recording 6-8 days after plating.
The cells were then rinsed with the same buffer, lacking fura-2/AM, and maintained at room temperature until used for measurement of fluorescence, the Aclar squares were transferred into quartz cuvettes containing 2 ml of the HEPES buffer. […] Fluorescence was measured using excitation and emission wavelengths of 340 and 510 nm, respectively.

Assay [2] has as its target NMDA receptor. The assay is described as follows: [3H]MK-801 binding assay, synaptic plasma membranes from rat cortex. The conditions noted are these: read-out: [^3H]MK-801 data IC50. How it is done:
Synaptic plasma membranes (SPMs) from rat cortex were prepared as follows. […] The cortices from 25 rats were thawed and pooled. […] The extensive washing procedure utilized in this assay was designed to minimize the concentrations of glutamate and glycine (co-agonists at the NMDA receptor-ionophore complex) present in the membrane preparation.
On the day of assay, aliquots of SPM were thawed and resuspended in 75 vols of 5 mM K-EDTA, pH 7.0.
The SPM pellet was resuspended in assay buffer (30 mM EPPS, 1 mM K-EDTA, pH 7.0) by polytron. […] Binding was started by the addition of the tissue homogenate. The assay was terminated by the addition of 4 ml ice-cold buffer, followed by filtration over glass-fiber filters (Schleicher & Schuell No. 30) on a Millipore 12-well filtration manifold. […] Radioactivity on the filters was measured using Fisherbrand Scinti-Safe scintillation cocktail. Samples were shaken for 45-60 min on a shaker platform to solubilize the radioactivity. Counting for ^3H was performed in a Beckman 6000IC LS Scintillation Counter for 4 min per sample.

The target of assay [3] is norepinephrine transporter site (Rattus norvegicus, UniProt Q63380). The experiment in a line: Norepinephrine reuptake inhibition assay ([3H]nisoxetine binding, forebrain membranes). As to conditions: read-out: NE Uptake, mean % inhibition. How it is done: (§1) Monoamine transporter binding assays (reuptake inhibition assays) were performed by NovaScreen using standard radioligand binding assays. The transporter binding assays are described briefly below:
(§2) Reactions were terminated by rapid vacuum filtration onto glass fiber filters.

Assay [4] concerns the target dopamine transporter site (Cavia porcellus, UniProt H0WCX4). The assay is described as follows: Dopamine reuptake inhibition assay ([3H]WIN 35428 binding, striatal membranes). As to conditions: read-out: DA Uptake, mean % inhibition; for inhibition at 0.1 µM: @ 100 nM (top number); for inhibition at 10 µM: @ 10.0 µM (bottom number). Further details: species or system Guinea pig. The protocol:
as §1, §2

Sequence of dopamine transporter site (H0WCX4 1-619): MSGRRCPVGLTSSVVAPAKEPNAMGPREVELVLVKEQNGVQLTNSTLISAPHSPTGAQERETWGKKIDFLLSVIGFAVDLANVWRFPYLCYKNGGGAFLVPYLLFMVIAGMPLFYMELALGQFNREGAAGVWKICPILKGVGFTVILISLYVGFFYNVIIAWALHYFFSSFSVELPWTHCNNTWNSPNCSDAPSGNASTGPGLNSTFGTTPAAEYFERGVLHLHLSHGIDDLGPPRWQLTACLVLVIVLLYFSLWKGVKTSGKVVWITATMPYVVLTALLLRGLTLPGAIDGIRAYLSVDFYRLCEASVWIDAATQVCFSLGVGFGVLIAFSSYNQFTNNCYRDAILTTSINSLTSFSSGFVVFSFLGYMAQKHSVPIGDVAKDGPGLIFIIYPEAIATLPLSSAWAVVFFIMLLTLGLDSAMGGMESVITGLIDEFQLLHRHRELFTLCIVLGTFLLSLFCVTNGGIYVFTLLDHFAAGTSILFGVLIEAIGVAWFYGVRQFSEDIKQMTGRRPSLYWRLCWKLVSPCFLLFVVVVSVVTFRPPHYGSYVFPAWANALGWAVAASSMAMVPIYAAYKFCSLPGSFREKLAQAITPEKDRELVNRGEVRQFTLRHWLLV
Sequence of norepinephrine transporter site (Q63380 1-617): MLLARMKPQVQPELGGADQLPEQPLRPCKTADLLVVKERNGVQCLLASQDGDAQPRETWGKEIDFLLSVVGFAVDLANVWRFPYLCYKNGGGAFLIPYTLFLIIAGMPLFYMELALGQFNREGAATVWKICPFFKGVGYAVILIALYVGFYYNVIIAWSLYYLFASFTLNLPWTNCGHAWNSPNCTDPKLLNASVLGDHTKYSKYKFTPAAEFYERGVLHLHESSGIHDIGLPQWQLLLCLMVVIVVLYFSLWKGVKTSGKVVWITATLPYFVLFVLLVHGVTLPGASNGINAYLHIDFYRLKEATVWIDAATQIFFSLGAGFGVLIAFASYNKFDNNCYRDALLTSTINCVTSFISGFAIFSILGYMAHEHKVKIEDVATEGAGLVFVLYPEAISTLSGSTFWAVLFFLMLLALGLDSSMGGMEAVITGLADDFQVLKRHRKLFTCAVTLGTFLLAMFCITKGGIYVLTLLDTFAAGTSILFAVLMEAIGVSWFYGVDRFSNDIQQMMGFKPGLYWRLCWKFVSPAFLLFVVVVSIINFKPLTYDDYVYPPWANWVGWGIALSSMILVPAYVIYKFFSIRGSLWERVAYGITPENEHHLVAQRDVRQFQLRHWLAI

`NCCC(Oc1cccc(F)c1)c1cccc(F)c1` (stereo not drawn) [Compound 119, 3-(3-Fluorophenoxy)-3-(3-fluorophenyl)-1-propylamine]: the half-maximal inhibitory concentration (IC50) in assay [1] (read-out: fura2 data IC50, fura-2 [Ca2+]i) came out at 0.115 µM; in assay [2], 0.087 µM. Also, the inhibition at 0.1 µM was 8.9% in assay [3] and 1.9% in assay [4]. The inhibition at 10 µM in assay [3] was 19.4%; in assay [4] it was 58.3%.

As for `NCCC1c2ccccc2CCc2ccccc21` [Compound 156, 5-(2-Aminoethyl)-5H-10, 11-dihydrodibenzo [a,d] cycloheptene hydrochloride], the concentration for half-maximal inhibition (IC50) in assay [1] (fura-2 [Ca2+]i, read-out: fura2 data IC50) is 0.069 µM.

`CNCCC(Oc1ccc(C(F)(F)F)cc1)c1ccccc1` (stereo not drawn) [Fluoxetine]: the inhibition at 10 µM in assay [4] came out at 78%.

In the case of `Fc1ccc([C@@H]2CCNC[C@H]2COc2ccc3c(c2)OCO3)cc1` [Paroxetine, reference compound], in assay [3], the inhibition at 0.1 µM is under 20% and the inhibition at 10 µM is 50%. In assay [4], the inhibition at 0.1 µM is under 20% and the inhibition at 10 µM worked out at 97%.
